Patent US9931347B2, “Pharmaceutical compound” (IOmet Pharma Ltd., priority 2013, dated 2018)

What was measured:
Recombinant human IDO = Recombinant human IDO (Homo sapiens, UniProt P14902); experiment: hIDO biochemical coupled assay; details: 45 μM L-tryptophan, coupled with kynurenine formamidase
Procedure: (§1) Exemplary compounds of the invention were prepared, and tested to determine their effect as TDO and/or IDO inhibitors. Two different assays were employed: 1. a cell-based assay for detecting the effect of test compounds on kynurenine production in two different cancer cell types. This assay utilised cancer cells which expressed either TDO or IDO and as such was used as a means of testing compound activity at these two enzymes in a cell-based context. 2. a TDO and IDO biochemical coupled assay which utilised recombinantly produced and purified TDO and IDO enzymes in combination with the enzyme formamidase. This coupled enzyme system allowed conversion of N-formylkynurenine produced by TDO or IDO activity to kynurenine which was then quantified by fluorescence following addition of Erhlich's Reagent The protocols for these are set out below.
Recombinant human IDO or TDO was incubated in 50 mM KPO4 (pH 7.0), 0.5 mM EGTA, 0.5 mM EDTA, 0.05% Triton™ X100, 20 mM ascorbate, 10 μM methylene blue, 500 U/ml catalase, 50 μg/ml KynB (kynurenine formamidase).

[1] = biological target: T1, TDO (A172 human glioblastoma cells) (Homo sapiens, UniProt P48775); experiment: A172 Kynurenine cell based assay; details: 500 μM L-tryptophan, 48 hours, kynurenine by Erhlich's reagent
T1 construct: This assay utilised cancer cells which expressed either TDO or IDO; endogenous in cells; host or cells: A172 human glioblastoma cells
Method in brief: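 Kynurenine released into the supernatant was quantified by absorbance at 490 nm after 5 min with Erhlich's reagent. A172 cells were seeded at 30,000/well and exposed to test compound for 48 hours at 37° C. in phenol red-free RPMI containing 500 μM L-tryptophan, 10% FCS and 2 mM L-glutamine.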

[2] = biological target: T2, IDO (SKOV3 human ovarian adenocarcinoma cells, IFN-γ induced) (Homo sapiens, UniProt P14902); experiment: SKOV3 Kynurenine cell based assay; details: IDO induced by 500 ng/ml IFN-γ, 500 μM L-tryptophan, 48 hours
T2 construct: IDO expression was induced in the SKOV3 cells by the addition of 500 ng/ml IFN-γ; endogenous in cells; host or cells: SKOV3 human ovarian adenocarcinoma cells, induced with IFN-γ
Method in brief: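 Kynurenine in the supernatant, detected by Ehrlich's reagent, served as read-out after 48 h at 37° C with or without test compound. SKOV3 cells (40,000/well) were grown in phenol red-free RPMI, 10% FCS, 2 mM L-glutamine, 500 μM L-tryptophan, with 500 ng/ml IFN-γ to induce IDO.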

Recombinant human TDO = Recombinant human TDO (Homo sapiens, UniProt P48775); experiment: hTDO biochemical coupled assay; details: 330 μM L-tryptophan, coupled with kynurenine formamidase
Procedure: as §1
Recombinant human IDO or TDO was incubated in 50 mM KPO4 (pH 7.0), 0.5 mM EGTA, 0.5 mM EDTA, 0.05% Triton™ X100, 20 mM ascorbate, 10 μM methylene blue, 500 U/ml catalase, 50 μg/ml KynB (kynurenine formamidase). TDO assays were carried out in the presence of 330 μM L-tryptophan, while IDO assays had the addition of 45 μM L-tryptophan. After incubation for 17 minutes at room temperature the reactions were stopped by the addition of Erhlich's reagent and incubated at room temperature for 5 minutes before the fluorescence was read (Ex475, Em530).

Recombinant human TDO, sequence (P48775 whole entry): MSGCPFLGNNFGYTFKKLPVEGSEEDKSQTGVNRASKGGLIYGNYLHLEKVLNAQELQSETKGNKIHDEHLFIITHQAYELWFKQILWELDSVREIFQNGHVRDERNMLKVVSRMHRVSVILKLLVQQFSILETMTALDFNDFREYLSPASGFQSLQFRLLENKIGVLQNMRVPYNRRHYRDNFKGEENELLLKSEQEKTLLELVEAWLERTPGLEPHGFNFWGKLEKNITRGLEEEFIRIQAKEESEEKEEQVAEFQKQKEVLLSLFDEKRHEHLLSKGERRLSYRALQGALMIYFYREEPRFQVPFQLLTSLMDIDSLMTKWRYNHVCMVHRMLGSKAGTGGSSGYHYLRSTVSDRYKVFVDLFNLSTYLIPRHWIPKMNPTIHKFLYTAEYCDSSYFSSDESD
T1 sequence (P48775 whole entry): as above
T2 sequence (P14902 whole entry): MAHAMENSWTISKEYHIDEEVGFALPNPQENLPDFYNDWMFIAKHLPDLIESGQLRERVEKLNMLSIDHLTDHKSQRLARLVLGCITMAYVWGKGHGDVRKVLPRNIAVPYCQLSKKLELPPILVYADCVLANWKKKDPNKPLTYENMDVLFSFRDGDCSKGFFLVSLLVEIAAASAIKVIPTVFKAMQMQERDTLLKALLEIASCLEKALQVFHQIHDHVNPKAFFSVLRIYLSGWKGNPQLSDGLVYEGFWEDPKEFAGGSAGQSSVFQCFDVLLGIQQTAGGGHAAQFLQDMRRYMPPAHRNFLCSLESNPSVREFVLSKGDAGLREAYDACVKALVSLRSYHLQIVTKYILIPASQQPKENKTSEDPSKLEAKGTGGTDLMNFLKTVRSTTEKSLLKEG
Recombinant human IDO, sequence (P14902 whole entry): as above

SMILES	hIDO biocehmical assay pIC50 (Recombinant human IDO)	A172 Kynurenine cell based assay pIC50 [1]	SKOV3 Kynurenine cell based assay pIC50 [2]	hTDO biochemical assay pIC50 (Recombinant human TDO)
CS(=O)(=O)N1CC=C(c2c[nH]c3c(F)cccc23)CC1 [Compound 100]	+− (+− = pIC50 <4.00)	+ (+ = pIC50 4.00-4.99)	+− (+− = pIC50 <4.00)	+− (+− = pIC50 <4.00)
Cc1cccc2c(C3CCN(C(=O)c4ccccc4OC(F)(F)F)CC3)c[nH]c12 [Compound 59]	+− (+− = pIC50 <4.00)	+ (+ = pIC50 4.00-4.99)	+ (+ = pIC50 4.00-4.99)	+− (+− = pIC50 <4.00)
O=S(=O)(c1cccs1)N1CC=C(c2c[nH]c3ncccc23)CC1 [Compound 13]	+− (+− = pIC50 <4.00)	+− (+− = pIC50 <4.00)	++ (++ = pIC50 5.00-5.99)	+− (+− = pIC50 <4.00)
O=C(Cc1cccs1)N1CCC(c2c[nH]c3ccccc23)CC1 [Compound 19]	+− (+− = pIC50 <4.00)	+− (+− = pIC50 <4.00)	+ (+ = pIC50 4.00-4.99)	+− (+− = pIC50 <4.00)
O=S1(=O)CCC2CN(c3c[nH]c4ccccc34)CCN21 (stereo not shown) [Compound 304]		++ (++ = pIC50 5.00-5.99)		+ (+ = pIC50 4.00-4.99)
CCC(=O)N1CCC(c2c[nH]c3cc(F)ccc23)CC1 [Compound 263]		++ (++ = pIC50 5.00-5.99)	++ (++ = pIC50 5.00-5.99)	+ (+ = pIC50 4.00-4.99)
CS(=O)(=O)N1CCC(c2c[nH]c3cc(F)c(F)cc23)CC1 [Compound 236]		++ (++ = pIC50 5.00-5.99)	+ (+ = pIC50 4.00-4.99)	+ (+ = pIC50 4.00-4.99)
COc1ccc2[nH]cc(C3CCN(C(C)=O)CC3)c2c1 [Compound 199]				+ (+ = pIC50 4.00-4.99)
CS(=O)(=O)N1CC=C(c2c[nH]c3ccccc23)CC1 [Compound 209]		++ (++ = pIC50 5.00-5.99)		++ (++ = pIC50 5.00-5.99)
O=S(=O)(C1CC1)N1CCC(c2c[nH]c3cc(F)ccc23)CC1 [Compound 288]		++ (++ = pIC50 5.00-5.99)	+ (+ = pIC50 4.00-4.99)	+ (+ = pIC50 4.00-4.99)
O=C(CO)N1CCC(c2c[nH]c3cc(F)ccc23)CC1 [Compound 269]		++ (++ = pIC50 5.00-5.99)	+ (+ = pIC50 4.00-4.99)	+ (+ = pIC50 4.00-4.99)
NS(=O)(=O)N1CCC(c2c[nH]c3cc(F)ccc23)CC1 [Compound 249]		++ (++ = pIC50 5.00-5.99)		+ (+ = pIC50 4.00-4.99)
Cn1cc(S(=O)(=O)N2CCC(c3c[nH]c4cc(F)ccc34)CC2)cn1 [Compound 286]		++ (++ = pIC50 5.00-5.99)		+ (+ = pIC50 4.00-4.99)
COc1cccc2[nH]cc(C3=CCN(S(C)(=O)=O)CC3)c12 [Compound 197]				+ (+ = pIC50 4.00-4.99)
CNS(=O)(=O)N1CCC(c2c[nH]c3cc(F)ccc23)CC1 [Compound 257]		++ (++ = pIC50 5.00-5.99)	+ (+ = pIC50 4.00-4.99)	+ (+ = pIC50 4.00-4.99)
O=C(C1CC1)N1CCC(c2c[nH]c3cc(F)ccc23)CC1 [Compound 265]		++ (++ = pIC50 5.00-5.99)	+ (+ = pIC50 4.00-4.99)	+ (+ = pIC50 4.00-4.99)
O=C(C(F)F)N1CCC(c2c[nH]c3cc(F)ccc23)CC1 [Compound 260]		++ (++ = pIC50 5.00-5.99)		+ (+ = pIC50 4.00-4.99)
CNS(=O)(=O)N1CC=C(c2c[nH]c3cc(F)ccc23)CC1 [Compound 256]		++ (++ = pIC50 5.00-5.99)	+ (+ = pIC50 4.00-4.99)	+ (+ = pIC50 4.00-4.99)

SMILES	hIDO biocehmical assay pIC50 (Recombinant human IDO)	A172 Kynurenine cell based assay pIC50 [1]	SKOV3 Kynurenine cell based assay pIC50 [2]	hTDO biochemical assay pIC50 (Recombinant human TDO)
CN(C)S(=O)(=O)N1CC=C(c2c[nH]c3cc(F)ccc23)CC1 [Compound 251]		+++ (+++ = pIC50 ≥6.00)	+ (+ = pIC50 4.00-4.99)	+ (+ = pIC50 4.00-4.99)
COCCS(=O)(=O)N1CCC(c2c[nH]c3cc(F)ccc23)CC1 [Compound 285]		++ (++ = pIC50 5.00-5.99)	+ (+ = pIC50 4.00-4.99)	+ (+ = pIC50 4.00-4.99)
CNCC1CN(c2c[nH]c3ccccc23)CCN1S(C)(=O)=O (stereo not shown) [Compound 319]		++ (++ = pIC50 5.00-5.99)		+ (+ = pIC50 4.00-4.99)
NS(=O)(=O)N1CCC(c2c[nH]c3ccccc23)CC1 [Compound 218]		++ (++ = pIC50 5.00-5.99)		+ (+ = pIC50 4.00-4.99)
CC(=O)N1CCCN(c2c[nH]c3ccccc23)CC1 [Compound 308]			+ (+ = pIC50 4.00-4.99)	+ (+ = pIC50 4.00-4.99)
CC(=O)N1CC=C(c2c[nH]c3cc(C)ccc23)CC1 [Compound 205]		+ (+ = pIC50 4.00-4.99)		+ (+ = pIC50 4.00-4.99)
CS(=O)(=O)N1CC=C(c2c[nH]c3cc(Cl)c(F)cc23)CC1 [Compound 227]		++ (++ = pIC50 5.00-5.99)		+ (+ = pIC50 4.00-4.99)
CC(=O)N1CC=C(c2c[nH]c3ccccc23)CC1 [Compound 210]		++ (++ = pIC50 5.00-5.99)		++ (++ = pIC50 5.00-5.99)
CNS(=O)(=O)N1CCN(c2c[nH]c3ccccc23)CC1 [Compound 295]		++ (++ = pIC50 5.00-5.99)		+ (+ = pIC50 4.00-4.99)
NS(=O)(=O)N1CCN(c2c[nH]c3ccccc23)CC1 [Compound 311]		++ (++ = pIC50 5.00-5.99)		+ (+ = pIC50 4.00-4.99)
Cn1cc(C2=CCN(S(C)(=O)=O)CC2)c2ccccc21 [Compound 204]				+ (+ = pIC50 4.00-4.99)
CC1CN(c2c[nH]c3ccccc23)CCN1S(C)(=O)=O (stereo not shown) [Compound 186]	+− (+− = pIC50 <4.00)	++ (++ = pIC50 5.00-5.99)	+− (+− = pIC50 <4.00)	
Cc1[nH]c2ccccc2c1C1CCN(S(C)(=O)=O)CC1 [Compound 161]	+− (+− = pIC50 <4.00)	+− (+− = pIC50 <4.00)	+ (+ = pIC50 4.00-4.99)	
CCCS(=O)(=O)N1CCC(c2c[nH]c3cc(F)ccc23)CC1 [Compound 292]		++ (++ = pIC50 5.00-5.99)	+ (+ = pIC50 4.00-4.99)	+ (+ = pIC50 4.00-4.99)
Cc1cccc2c(C3CCN(S(=O)(=O)c4ccccc4S(C)(=O)=O)CC3)c[nH]c12 [Compound 49]	+− (+− = pIC50 <4.00)	++ (++ = pIC50 5.00-5.99)	+ (+ = pIC50 4.00-4.99)	
CC(=O)N1CC=C(c2c[nH]c3cnccc23)CC1 [Compound 198]				+ (+ = pIC50 4.00-4.99)
CS(=O)(=O)N1CC=C(c2c[nH]c3cnccc23)CC1 [Compound 171]	+− (+− = pIC50 <4.00)	++ (++ = pIC50 5.00-5.99)	+− (+− = pIC50 <4.00)	
CS(=O)(=O)N1CC=C(c2c[nH]c3ccncc23)CC1 [Compound 170]	+− (+− = pIC50 <4.00)	++ (++ = pIC50 5.00-5.99)	+ (+ = pIC50 4.00-4.99)	
